Assay results published in US12168673B2 (Mitopower, Inc., priority 2022, dated 2024).

Assays:
[1] = Solid state stability (purity by UPLC); assay type: physicochemical
Procedure: Compounds 100, 101 and 102 were kept in glass vials at three different locations at temperatures of […], 2-8° C. and −20° C. in order to assess solid state stability at room temperature, refrigerated conditions and in a deep freezer. The compounds from these vials were assessed for purity by UPLC at three different timepoints 0 hrs, 24 hrs and 48 hrs. Table 2 depicts the results obtained for solid state stability at 25° C., 2-8° C. and −20° C. respectively. Purity measurements were made at 0 hrs, 24 hours and 48 hours.

[2] = Stability in solutions (pH range, simulated gastric fluid, simulated intestinal fluid); assay type: physicochemical
Procedure: 1 mg/ml solutions of compound 100 were prepared in each buffer, diluted to 0.1 mg/ml in methanol at each time point and analyzed as follows: Gemini C-18, 250×4.6 mm, 5 im, Mobile Phase: Methanol Isocratic Flow Rate: 0.4 mL/min.

[3] = Caco-2 permeability assay; conditions: human
Text: The endpoint measured is the intestinal permeability expressed as apparent permeability—Papp value. All permeability values are represented as ×10^−6 cm/sec.

[4] = Human hepatocyte clearance; assay type: in vitro ADME; conditions: human hepatocytes
Procedure: A hepatocyte vial was taken out from the liquid nitrogen tank and was thawed in a water bath maintained at 37° C. The thawed cell suspension was transferred into a torsion tube containing 50 mL of thawing media (Xenotech). The thawing media containing hepatocytes was centrifuged at 1000 rpm for 5 min, the supernatant was discarded and the pellet was resuspended in 2 ml of Xenotech OptiIncubate Media. The cells were counted by using a haemocytometer after mixing an aliquot of cell suspension with equal volume of trypan blue. The cell suspension was diluted to a working density of 2 million cells with DMEM media without FBS/incubation media.
The assay was performed in duplicates (n=2). 150 μL of 2 million cell working stock of hepatocyte cell suspension was added to a 24 well plate and incubated in a 37° C. incubator, with speed of 500 RPM for 10 min. 150 μL of 2 μM working stock of test compound was incubated separately. The reaction at 0, 15, 30, 60 and 90 min was stopped by precipitating 20 μL of incubation mixture with 200 μL of acetonitrile containing internal standard. […] The supernatant was separated and diluted 1:1 with water before injecting in LC-MS/MS analysis.

O=C(OC1O[C@H](CO)[C@@H](O)[C@H]1O)c1cccnc1 (stereo partly drawn) [Compound 100, (3R, 4S, 5R)-3,4-dihydroxy-5-(hydroxymethyl) tetrahydrofuran-2-yl nicotinate]
Solid State Stability (% Purity) ([1]; 2-8° C., 0 hr): 96.29%
Solid State Stability (% Purity) ([1]; 2-8° C., 24 hr): 96.32%
Solid State Stability (% Purity) ([1]; 2-8° C., 48 hr): 96.28%
Solid State Stability (% Purity) ([1]; 25° C., 0 hr): 96.02%
Solid State Stability (% Purity) ([1]; 25° C., 24 hr): 96.23%
Solid State Stability (% Purity) ([1]; 25° C., 48 hr): 96.22%
Solid State Stability (% Purity) ([1]; −20° C., 0 hr): 96.33%
Solid State Stability (% Purity) ([1]; −20° C., 24 hr): 96.32%
Solid State Stability (% Purity) ([1]; −20° C., 48 hr): 96.49%
% remaining ([2]; SGF (simulated gastric fluid), 0 h): 100.0%
% remaining ([2]; SGF (simulated gastric fluid), 1 week): 43.4%
% remaining ([2]; SGF (simulated gastric fluid), 1 h): 99.1%
% remaining ([2]; SGF (simulated gastric fluid), 2 h): 89.2%
% remaining ([2]; SGF (simulated gastric fluid), 4 h): 79.6%
% remaining ([2]; SGF (simulated gastric fluid), 8 h): 65.4%
% remaining ([2]; SGF (simulated gastric fluid), 24 h): 71.7%
% remaining ([2]; SGF (simulated gastric fluid), 48 h): 55.0%
% remaining ([2]; SIF (simulated intestinal fluid), 0 h): 100.0%
% remaining ([2]; SIF (simulated intestinal fluid), 1 week): 30.7%
% remaining ([2]; SIF (simulated intestinal fluid), 1 h): 76.4%
% remaining ([2]; SIF (simulated intestinal fluid), 2 h): 64.5%
% remaining ([2]; SIF (simulated intestinal fluid), 4 h): 41.4%
% remaining ([2]; SIF (simulated intestinal fluid), 8 h): 40.5%
% remaining ([2]; SIF (simulated intestinal fluid), 24 h): 36.7%
% remaining ([2]; SIF (simulated intestinal fluid), 48 h): 38.7%
% remaining ([2]; pH 1, 0 h): 100.0%
% remaining ([2]; pH 1, 1 week): 46.5%
% remaining ([2]; pH 1, 1 h): 100.9%
% remaining ([2]; pH 1, 2 h): 104.8%
% remaining ([2]; pH 1, 4 h): 80.7%
% remaining ([2]; pH 1, 8 h): 49.0%
% remaining ([2]; pH 1, 24 h): 53.0%
% remaining ([2]; pH 1, 48 h): 45.6%
% remaining ([2]; pH 2, 0 h): 100.0%
% remaining ([2]; pH 2, 1 week): 31.9%
% remaining ([2]; pH 2, 1 h): 91.9%
% remaining ([2]; pH 2, 2 h): 93.8%
% remaining ([2]; pH 2, 4 h): 93.0%
% remaining ([2]; pH 2, 8 h): 54.8%
% remaining ([2]; pH 2, 24 h): 28.6%
% remaining ([2]; pH 2, 48 h): 36.0%
% remaining ([2]; pH 4, 0 h): 100.0%
% remaining ([2]; pH 4, 1 week): 45.4%
% remaining ([2]; pH 4, 1 h): 95.7%
% remaining ([2]; pH 4, 2 h): 99.2%
% remaining ([2]; pH 4, 4 h): 97.9%
% remaining ([2]; pH 4, 8 h): 49.0%
% remaining ([2]; pH 4, 24 h): 42.3%
% remaining ([2]; pH 4, 48 h): 42.9%
% remaining ([2]; pH 6, 0 h): 100.0%
% remaining ([2]; pH 6, 1 week): 48.1%
% remaining ([2]; pH 6, 1 h): 92.0%
% remaining ([2]; pH 6, 2 h): 86.4%
% remaining ([2]; pH 6, 4 h): 70.9%
% remaining ([2]; pH 6, 8 h): 50.4%
% remaining ([2]; pH 6, 24 h): 55.1%
% remaining ([2]; pH 6, 48 h): 47.7%
% remaining ([2]; pH 7.4, 0 h): 100.0%
% remaining ([2]; pH 7.4, 1 week): 34.2%
% remaining ([2]; pH 7.4, 1 h): 57.1%
% remaining ([2]; pH 7.4, 2 h): 41.1%
% remaining ([2]; pH 7.4, 4 h): 37.5%
% remaining ([2]; pH 7.4, 8 h): 46.3%
% remaining ([2]; pH 7.4, 24 h): 46.0%
% remaining ([2]; pH 7.4, 48 h): 36.6%
% remaining ([2]; pH 9, 0 h): 100.0%
% remaining ([2]; pH 9, 1 week): 9.2%
% remaining ([2]; pH 9, 1 h): 17.7%
% remaining ([2]; pH 9, 2 h): 7.8%
% remaining ([2]; pH 9, 4 h): 7.6%
% remaining ([2]; pH 9, 8 h): 7.5%
% remaining ([2]; pH 9, 24 h): 6.6%
% remaining ([2]; pH 9, 48 h): 8.1%
Papp A→B [3]: 0.5 ×10⁻⁶ cm/s
Papp B→A [3]: 0.6 ×10⁻⁶ cm/s
efflux ratio [3]: 1.2
recovery ([3]; Caco-2, % Recovery A to B): 98.5%
recovery ([3]; Caco-2, % Recovery B to A): 89%
half-life at 1 μM [4]: 2.38 h
hepatocyte CLint at 1 μM [4]: 4.86 µL/min/1e6 cells
